Laboratory results: US12303483B2, “Lipase degradation resistant surfactants for use in large molecule therapeutic formulations” (Janssen Biotech, Inc., priority 2018, dated 2025)

What was measured:
Assay type in all cases: physicochemical
bispecific mAb A = test: SEC percent monomer, formulation spiked with lipase-exposed surfactant (Example 3), mAb A; settings: mAb A (FIG. 3A)
Procedure: (§1) Size Exclusion Chromatography (SEC). The soluble aggregation quality attribute of the investigated formulations was evaluated using size exclusion ultra performance liquid chromatography (SE-UPLC). To prepare samples for analysis, collected formulations from each condition (time zero (T0) control, shaking stress, and thermal stress followed by shaking stress) were diluted with formulation buffer of each respective mAb from 50 mg/mL to 2 mg/mL. SEC runs were conducted with a 5 μL injection of sample into an Acquity UPLC 200 Å, 1.7 μm column using a 0.2 M sodium phosphate mobile phase. Eluting peaks were integrated to determine monomer content based on percent area of the main peak relative to sum of all peak areas.
(§2) Further studies evaluated the ability of PFA and polysorbate formulations to retain their protective effects after exposures of the surfactants to lipase. The mAb formulations were spiked with surfactants that had been exposed to lipase-beads and then subjected to shaking stress or thermal stress followed by shaking. The mAb formulations were then evaluated for soluble aggregation and particulate matter using SEC and DLS, respectively.

[1] = tested on: lipases immobilized on beads; test: Surfactant stock solutions exposed to lipases immobilized on beads, surfactant quantitation by UPLC-ELSD (Example 2); settings: over the course of 18 days
Text: Materials: Surfactants investigated in this study included PFA and polysorbates. Two PFA, Brij® 35 (L23) (Product #ET47399, CAS #9002-92-0) and Brij® 98 (020) (Product #ET40118, CAS #9004-98-2), were obtained from Croda International PLC (East Yorkshire, UK). Polysorbate 20 (Product #4116-04, CAS #9005-64-5) and polysorbate 80 (Product #4117-03, CAS #9005-65-6) were obtained from JT Baker (Center Valley, Pennsylvania). Lipase immobilized on polystyrene beads at 2.0 U/mg (Product Number 73940) was obtained from Fluka (Denmark). All monoclonal antibodies (mAbs) were produced or acquired by Janssen Supply Chain, LLC (Horsham, Pennsylvania) and purified in a series of chromatography and filtration steps.
Surfactant Quantitation. Surfactant quantitation of samples was performed using UPLC with evaporative light scattering detection. Duplicate 7.5 μL sample injections were injected into an OASIS MAX column (30 μm, 2.1×20 mm). The mobile phase consisted of a gradient of milliQ water and isopropanol with 2% formic acid. The integrated area for each sample's eluting peak was assessed against a surfactant standard curve created from serial dilution of each surfactant type ranging from 0.005% (w/v) to 0.08% (w/v).
Stock solutions of PFA and polysorbate surfactants were exposed to lipases immobilized on beads over a period of 18 days. Surfactant levels in the solutions were quantified periodically over the course of testing to determine the extent of lipase-mediated degradation.

IgG4 mAb C = test: SEC percent monomer, formulation spiked with lipase-exposed surfactant (Example 3), mAb C; settings: 0.01% surfactant exposed to lipase; mAb C (FIG. 3C)
Procedure: as §1, §2

[2] = tested on: mAbs A, B and C (50 mg/mL formulations); test: SEC percent monomer of mAb formulations with surfactant after shaking or thermal stress (Example 1); settings: 0.01% (w/v) surfactant; 3-month storage at 25° C. followed by shaking stress; compared with polysorbate (PS20 and PS80) formulations; Student's t-test p<0.01
Procedure: as §1
To assess the protective effects of different surfactants in mAb formulations, polysorbate and PFA was spiked into formulations for three different mAbs. mAbs A and B are bispecific antibodies, and mAb C is an IgG4 monoclonal antibody. The formulations for mAbs A and B comprised 10 mM histidine, 8.5% (w/v) sucrose, at pH 5.7. The mAb C formulation consisted of 10 mM sodium phosphate, 8.5% (w/v) sucrose, 10 ppm EDTA, at pH 7.1. […] Each formulation condition was evaluated with vials in triplicate. The impact of the surfactant type and concentration was assessed using size exclusion chromatography (SEC).

Row | percent monomer content (SEC) versus control formulation without any surfactant (bispecific mAb A; 0.01% surfactant exposed to lipase) | percent monomer content (SEC) versus control formulation without any surfactant (bispecific mAb A; 0.04% surfactant exposed to lipase) | surfactant level in stock solutions exposed to lipases [1] | percent monomer content (SEC) versus control formulation without any surfactant (IgG4 mAb C) | percent monomer content (SEC) [2] | Substance
1 | lower percent monomer content | lower percent monomer content | declined significantly |  |  | polysorbate 80 [PS80]
2 |  |  | declined significantly | lower percent monomer content |  | polysorbate 20 [PS20]
3 |  |  | remained relatively constant |  | retain higher percent monomer content | polyoxyethylene (23) lauryl ether [Brij® L23]
4 |  |  | remained relatively constant |  | retain higher percent monomer content | polyoxyethylene (20) oleyl ether [Brij® 020]
